Measured values: patent publication EP4473972A1, “COMBINATIONS COMPRISING AN ATR INHIBITOR WITH SYNERGISTIC EFFECT AGAINST GLIOMAS” (Eberhard-Karls-Universität Tübingen, priority 2023, dated 2024)

Experiments:
[1] = tested on: LN229 cells; test: DigiWest Multiplex Protein Analysis; format: cell-based, human; conditions: LN229, 72 h
Protocol: (§1) After 72 h of AZD6738 treatment, the inventors detached and counted the cells and subsequently snap froze them in liquid nitrogen. For protein preparation, they kept the cells on ice and added 20-30 µL of lysis buffer (LDS Lysis Buffer (Life Technologies, Carlsbad, CA, USA), supplemented with reducing agent (Thermo Fisher Scientific, Waltham, MA, USA) and protease- (Roche Diagnostics GmbH, Mannheim, Germany) and phosphatase-inhibitor (Roche)). Proteins were denatured by heating to 95°C for 10 min before the lysates were transferred to QiaShredder Eppendorf tubes (Eppendorf, Hamburg, Germany). After centrifugation (16,000g, 5 min, RT), eluates were stored at -80°C until further use. Protein quantification was performed using in-gel staining. 1 µL of each original lysate was diluted 1:10 (v/v) in lysis buffer. The respective aliquots were denatured for 10 mins at 70°C and 10 µL were run in a NuPAGE 4-12% Bis-Tris precast gel (Thermo Fisher Scientific) according to the manufacturer's instructions. The gel was washed with water and proteins were stained with BlueBandit (VWR, Darmstadt, Germany) for 1 h. The gel was de-stained over night with ddH2O before detection on a LI-COR (LI-COR, Bad Homburg, Germany) instrument. Analysis and protein quantification was performed using ImageStudio.
(§2) The DigiWest analysis was performed as described in the art. In brief, the inventors loaded 10 µg of cellular protein on an SDS-polyacrylamide gel and size-separated them using the commercial NuPAGE system (Life Technologies). Size-separated proteins were blotted onto a PVDF membrane and biotinylated on the membrane using NHS-PEG12-Biotin (50 µM) in PBST for 1 h. After drying of the membrane, the samples lanes were cut into 96 strips of 0.5 mm width using an automated cutting plotter (Silhouette America, West Orem, UT, USA) each corresponding to a defined molecular weight fraction. Each of the strips was placed in one well of a 96-well plate and 10 µl elution buffer (8 M urea, 1% Triton-X100 in 100 mM Tris-HCl pH 9.5) was added. The eluted proteins were diluted with 90 µl of dilution buffer (5% BSA in PBS, 0.02% sodium azide, 0.05% Tween-20) and each of the protein fractions was incubated with 1 distinct magnetic color-coded bead population (Luminex, Austin, USA) coated with neutravidin. The biotinylated proteins bind to the neutravidin beads such that each bead color represents proteins of one specific molecular weight fraction. All 96 protein loaded bead populations were mixed resulting in reconstitution of the original lane. Such a beadmix was sufficient for about 150 individual antibody incubations. Aliquots of the DigiWest bead-mixes (about 1/200th per well) were added to 96 well plates containing 50 µl assay buffer (Blocking Reagent for ELISA (Roche, Rotkreuz, Switzerland) supplemented with 0.2% milk powder, 0.05% Tween-20 and 0.02% sodium azide) and different diluted antibodies were added to the wells. After overnight incubation at 15°C in a shaker, the bead-mixes were washed twice with PBST and species-specific PE-labelled (Phycoerythrin) secondary antibodies (Dianova, Hamburg, Germany) were added and incubated for 1 hour at 23°C. Beads were washed twice prior to readout on a Luminex FlexMAP 3D.
(§3) For quantification of the antibody specific signals, we used the DigiWest Analyzer software; it automatically identifies peaks of appropriate molecular weight and calculates the peak area. Signal intensity was normalized to the total amount of protein loaded onto one lane. The software package MEV 4.9.0 was used for statistical analysis along with Graph Pad Prism (Version 9.0.0). For all statistical tests, a p-value <0.05 was considered significant.

[2] = tested on: LNZ308 cells; test: DigiWest Multiplex Protein Analysis; format: cell-based, human; conditions: LNZ308, 72 h
Protocol: as §1, §2, §3

[3] = tested on: primary cultures (TUE-PC1-6); test: Viability of patient-derived primary cultures; format: cell-based; conditions: six primary cultures (TUE-PC1-6), 72 h
Text: Primary tumor tissue was obtained from fresh residual material upon resection at the Department of Neurosurgery, University Hospital Tübingen. The inventors cut the tissue in small pieces, washed it using Hanks Balanced Salt Solution (HBSS) (Gibco, Carlsbad, CA, US) and digested it by collagenase and dispase (Roche, Basel, CH). To remove any remaining erythrocytes, they used red blood cell lysis buffer (Sigma Aldrich, St. Louis, MO, US). The inventors then cultured the cells as GS cells in Neurobasal®-A medium. They first evaluated AZD6738 sensitivity of each primary culture and selected two concentrations. […] To evaluate combination treatment analyses, the inventors leveraged the Bliss independence Criterion.
The inventors seeded 5,000 or 10,000 cells, respectively, on day one, treated the next day in serum-free medium and incubated for up to 72 h. Subsequently, they measured cell viability using CellTiterBlue reagent (Promega, Madison, WI, US) according to manufacturer's instructions with a GloMax (Promega, Madison, Wl, US). The inventors normalized measurements to untreated cells.

[4] = tested on: GL261 cells; test: Cell cycle analysis (propidium iodide flow cytometry); format: cell-based, murine; conditions: 72 h
Protocol: The inventors seeded the cells on day one and treated them on the next day. After 72 h, they detached the cells and stained them with propidium iodide solution (50 µg/mL propidium iodide (Thermo Fisher Scientific, Waltham, MA, US), 0.2% Triton X-100 (Roth, Karlsruhe, Germany), 100 µg RNase (Thermo Fisher Scientific, Waltham, MA, US), 1 g/L glucose in PBS (phosphate buffered saline) (Gibco, Carlsbad, CA, US). Flow cytometry was done using a MACSQuant Analyzer 10 (Miltenyi Biotec, Bergisch Gladbach, Germany). The inventors analyzed the acquired data with the FlowJo software (Beckton, Dickinson & Company, Franklin Lakes, NJ, US).

[5] = after continuous dosing; cited from earlier work
[6] = tested on: SMA560 glioma cells; test: Syngeneic glioma mouse model (survival); format: in vivo, VM/Dk mice; conditions: 50 mg/kg bodyweight via oral gavage, five days on, two days treatment holiday; survival = time until the onset of neurological symptoms; vehicle control 14 days
Text: All animal experiments were approved by the regional council Tübingen and conducted in accordance with animal law. Animals used in this study are kept and bred in the animal facility of the institute. They are regularly analyzed for infectious diseases. The inventors injected 5000 SMA560 glioma cells into the right striatum of VM/Dk mice (male and female). On day 5 post surgery, they randomized mice into treatment and control arm. The inventors administered AZD6738 (celasertib, Selleckchem, Houston, TX, US) at 50 mg/kg bodyweight or vehicle control via oral gavage for five days followed by two days of treatment holiday. Animals were closely monitored as shown in the scoring sheets. The endpoint of the experiment was according to the animal law "the time until the onset of neurological symptoms", in the text designated as "survival".

[7] = tested on: LN229 and LNZ308 cells; test: DigiWest Multiplex Protein Analysis, across both cell lines; format: cell-based, human; conditions: 72 h
Protocol: as §1
as §2, with “Such a beadmix was sufficient for about 150 individual antibody incubations. Aliquots of the DigiWest bead-mixes (about 1/200th per well) were added to 96 well plates containing 50 µl assay buffer (Blocking Reagent for ELISA (Roche, Rotkreuz, Switzerland) supplemented with 0.2% milk powder, 0.05% Tween-20 and 0.02% sodium azide) and different diluted antibodies were added to the wells. After overnight incubation at 15°C in a shaker, the bead-mixes were washed twice with PBST and species-specific PE-labelled (Phycoerythrin) secondary antibodies (Dianova, Hamburg, Germany) were added and incubated for 1 hour at 23°C.” left out
For quantification of the antibody specific signals, we used the DigiWest Analyzer software; it automatically identifies peaks of appropriate molecular weight and calculates the peak area. […]

Compound: C[C@@H]1COCCN1c1cc(C2([S@](C)(=N)=O)CC2)nc(-c2cc[nH]c3nccc2-3)n1 [AZD6738, ceralasertib]
- CDC25C and pHistH3 (Ser10) [1]: downregulated
- Survivin (BIRC5) [1]: upregulated
- p53, p21 and Bax [1]: upregulation
- pAkt [1]: downregulation
- p16 [2]: accumulation
- pCDK2 (Thr160) protein levels [2]: reduced
- cell viability [3]: dose-dependent reduction
- cell cycle alterations [4]: accumulation in S phase
- adverse events [5]: bone marrow suppression
- median survival [6]: 21 days
- NF-κB ([7]; across both cell lines): significant upregulation
- markers for ATR target engagement such as pATR, Chk2, and Ku80 ([7]; across both cell lines): significant reduction
- Cleaved PARP ([7]; both cell lines): upregulated
- pH2A.X ([7]; both cell lines): Upregulation
